Where “and” joins values, the source holds several entries; their conditions need not be identical. Identical values can stand only once. Marks after values point to notes of the source that are not given here.
Assays:
[1] = DPPH radical scavenging assay; details: average inhibition, concentration range 0.0245 to 0.268 μM, n = 3
Experimental: The DPPH (2,2-diphenyl-1-picrylhydrazyl) radical scavenging assay was conducted to evaluate the antioxidant activity of compounds 5–12 following the method outlined by Chong et al. with minor modifications. A 1 mL sample with a concentration range of 0.0245 to 0.268 μM was introduced to a 1 mL methanol solution of DPPH ([…]) and vortexed. Following a 20-min incubation at 25 °C, absorbance was assessed at 527 nm using a UV-vis spectrophotometer, with blank as reference. Ascorbic acid served as a positive control. The negative control consists of a setup without samples (ascorbic acid and synthetic compounds). The percentage of DPPH free radical inhibition was determined using Equation (1) provided below.
% of DPPH radical scavenging activity was calculated using the following equation:(1) AA%=100−[Abs sample−Abs blank100/Abs control] • Equation (1) where: • Abs control = absorbance of the control. • Abs sample = absorbance of the sample.

[2] = tested on: BSA-glucose; assay: BSA-glucose antiglycation assay; design: species or system bovine; details: 7 days, 37 °C, pH 7.4, n = 3; read-out: BSA-glucose glycation IC50
Experimental: The BSA-glucose assay is conducted according to the methodology outlined by Mridula et al.. […] The reaction mixture was thoroughly mixed and incubated for 5 min. Following incubation, 0.5 mL of sodium azide was added to each tube. The tubes underwent incubation at 37 °C in the absence of light for a duration of seven days. Aminoguanidine is used as a positive control. Following a seven-day incubation period, the samples were analyzed with the Omega microplate reader (BMG LABTECH, Ortenberg, Germany), measuring fluorescence intensity at an excitation wavelength of 370 nm and an emission wavelength of 440 nm. The experiment was conducted in triplicate.

[3] = target: T1, pancreatic lipase (Sus scrofa, UniProt P00591); assay: In vitro pancreatic lipase inhibition assay; type: biochemical; details: porcine pancreas powder, pNPB substrate, n = 3
T1 construct: The enzyme source utilized was porcine pancreas powder; from tissue; host or cells: porcine pancreas (powder)
T1 sequence (P00591 1-450): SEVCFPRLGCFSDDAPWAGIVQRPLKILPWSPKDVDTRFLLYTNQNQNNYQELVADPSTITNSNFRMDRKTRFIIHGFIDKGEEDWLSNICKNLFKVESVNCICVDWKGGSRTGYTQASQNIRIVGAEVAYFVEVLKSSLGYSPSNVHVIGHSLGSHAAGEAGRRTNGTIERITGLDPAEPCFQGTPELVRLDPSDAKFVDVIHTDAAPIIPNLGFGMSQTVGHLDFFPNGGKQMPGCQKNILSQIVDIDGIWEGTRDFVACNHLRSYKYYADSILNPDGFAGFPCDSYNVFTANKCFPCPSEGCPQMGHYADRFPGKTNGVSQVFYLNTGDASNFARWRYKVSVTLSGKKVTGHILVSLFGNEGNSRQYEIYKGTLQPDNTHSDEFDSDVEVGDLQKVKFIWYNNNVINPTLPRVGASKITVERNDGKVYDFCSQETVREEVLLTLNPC
Experimental: The pancreatic lipase inhibition assay is conducted following the method outlined by Ajayi et al. (2022) with minor modifications. The enzyme source utilized was porcine pancreas powder at a concentration of 0.1 mg·mL^−1 in Tris–HCl buffer, pH 8.0. In a 96-well plate, 50 μL of phosphate–buffer solution (pH 7.0), 50 μL of pNPB (500 μM), and 50 μL of test samples 5–12 with concentrations ranging from 0.0245 to 0.268 μM were pipetted and mixed thoroughly. Fifty microliters of pancreatic enzyme were added to the resultant mixture and incubated at room temperature for 30 min. The resulting yellow p-nitrophenol was measured spectrophotometrically at 405 nm. Control was conducted concurrently without the addition of a test sample. […] PL inhibition was determined using the following formula: PL inhibition (%) = [(Activity of control − activity of test)/activity of control] × 100. The IC50 is determined utilizing GraphPad 10 software (GraphPad Software, LLC, San Diego, CA, USA).

[4] = tested on: differentiated 3T3-L1 adipocytes; assay: Intracellular ROS production (DCFH-DA, AAPH-stimulated); type: cell-based; details: 24 h treatment
Experimental: Differentiation of 3T3-L1 cells was performed within one week through culturing in MDI medium, which consisted of 0.5 mM 3-isobutyl-1-methylxanthine, 1 μM dexamethasone, and 1 μg/mL insulin, for 48 h in 10% FBS-DMEM. Subsequently, the cells were transferred to fresh 10% FBS and 90% DMEM supplemented with 1 μg/mL insulin.
On day 8 of differentiation, intracellular ROS levels in 3T3 L1 cells were assessed using the oxidation-sensitive fluorogenic probe 2′,7′-dichlorodihydrofluorescein-diacetate (DCFH-DA), following a method established by Forbes-Hernández et al., with minor modification. Post-differentiation, the cells were treated with the respective doses of the compounds for a period of 24 h. Following this, the cells underwent incubation with DCFH-DA (25 μM) at 37 °C for a duration of 30 min in the absence of light. Consequently, the cells were stimulated with 1 mM AAPH as a ROS initiator for a duration of 1 h. The density of light was measured using a spectrofluorometer with an excitation wavelength of 480 nm and an emission wavelength of 530 nm.

[5] = Chelating capacity (ferrozine) assay; details: 0.0245 to 0.268 μM
Experimental: Chelating capacity assay is conducted following the method outlined by Chong et al. with minor modifications. Samples of 0.1 mL with concentrations ranging from 0.0245 to 0.268 μM were combined with 0.5 mL of a […] and 0.2 mL of a 5 mM ferrozine solution. Then, a 10-min incubation at room temperature, absorbance was recorded at 562 nm using a blank solution in a 96-well plate reader. EDTA served as a positive control. The negative control consists of a sample devoid of any substances, including EDTA and synthetic compounds. The percentage of ferrous chelation was calculated using the Equation (1).

| SMILES | DPPH mean inhibition [1] | IC50 [2] | IC50 [3] | % ROS Generation ([4]; 0.02 μM) | % ROS Generation ([4]; 0.06 μM) | % ROS Generation ([4]; 0.1 μM) | % ROS Generation ([4]; 0.2 μM) | % ROS Generation ([4]; 0.25 μM) | Chelating activity [5] |
| --- | --- | --- | --- | --- | --- | --- | --- | --- | --- |
| CSc1ccc2c(c1)Sc1cc3ccccc3nc1N2CCCCS(=O)(=O)O [Compound 12, 4-(9-methylthio[3,2-b]benzo[1,4]thiazin-6-yl)butane-1-sulfonic acid] | 5.53% | 1.8 µM | 0.566 µM | 119.82 ± 5.12% and 119.82 ± 5.12 ^a % | 102.85 ± 1.47 ^b % | 97.18 ± 2.61 ^b % | 80.38 ± 1.72 ^c % | 60.12 ± 1.74% and 60.12 ± 1.74 ^d % | – |
| O=S(=O)(O)CCCCN1c2ccc(Cl)cc2Sc2cc3ccccc3nc21 [Compound 11, 4-(9-chloro[3,2-b]benzo[1,4]thiazin-6-yl)butane-1-sulfonic acid] | 8.47% | 1.89 µM | 0.87 µM | 104.90 ± 5.3% and 104.90 ± 5.31 ^a % | 35.75 ± 11.03 ^c % | 46.64 ± 6.13 ^bc % | 75.96 ± 2.21 ^ab % | 57.18 ± 1.66% and 57.18 ± 1.66 ^bc % | – |
| O=C1O[C@H]([C@@H](O)CO)C(O)=C1O [ascorbic acid, reference compound] | 54.24% | – | – | – | – | – | – | – | – |
| O=S(=O)(O)CCCN1c2ccc(F)cc2Sc2cc3ccccc3nc21 [Compound 6, 3-(9-fluoroquino[3,2-b]benzo[1,4]thiazin-6-yl)propane-1-sulfonic acid] | 3.45% | 1.57 µM | 1.24 µM | 137.15 ± 9.37 ^a % | 126.66 ± 2.43 ^a % | 88.31 ± 3.13 ^b % | 37.15 ± 9.37% and 69.68 ± 7.12 ^c % | 63.73 ± 1.04% and 63.73 ± 1.04 ^c % | – |
| CSc1ccc2c(c1)Sc1cc3ccccc3nc1N2CCCS(=O)(=O)O [Compound 8, 3-(9-methylthio[3,2-b]benzo[1,4]thiazin-6-yl)propane-1-sulfonic acid] | 7.36% | 0.98 µM | 1.32 µM | 149.62 ± 6.71% and 149.62 ± 6.71 ^a % | 101.04 ± 7.69 ^b % | 71.47 ± 2.98 ^c % | 62.94 ± 4.59 ^c % | 50.89 ± 2.85% and 50.89 ± 2.85 ^d % | – |
| N=C(N)NN [aminoguanidine, reference compound] | – | 0.31 µM | – | – | – | – | – | – | – |
| O=S(=O)(O)CCCCN1c2ccc(F)cc2Sc2cc3ccccc3nc21 [Compound 10, 4-(9-fluoroquino[3,2-b]benzo[1,4]thiazin-6-yl)butane-1-sulfonic acid] | 6.21% | 2.24 µM | 0.477 µM | 103.85 ± 1.17% and 103.85 ± 1.17 ^a % | 74.74 ± 2.90 ^b % | 69.81 ± 5.23 ^b % | 52.56 ± 4.14 ^c % | 47.16 ± 3.71% and 47.16 ± 3.71 ^c % | – |
| O=S(=O)(O)CCCN1c2ccc(Cl)cc2Sc2cc3ccccc3nc21 [Compound 7, 3-(9-chloro[3,2-b]benzo[1,4]thiazin-6-yl)propane-1-sulfonic acid] | 8.47% | 4.13 µM | 0.89 µM | 143.18 ± 10.65% and 143.18 ± 10.65 ^a % | 113.48 ± 10.27 ^a % | 33.27 ± 6.16 ^b % | 15.63 ± 2.74 ^b % | 14.96 ± 1.25% and 14.96 ± 1.25 ^b % | – |
| O=S(=O)(O)CCCCN1c2ccccc2Sc2cc3ccccc3nc21 [Compound 9, 4-(quino[3,2-b]benzo[1,4]thiazin-6-yl)butane-1-sulfonic acid] | 2.45% | 1.09 µM | 0.67 µM and 0.477 µM | 169.62 ± 13.81% and 169.62 ± 13.81 ^a % | 151.45 ± 25.13 ^ab % | 151.54 ± 32.18 ^ab % | 61.36 ± 1.58 ^c % | 26.38 ± 1.73% and 26.38 ± 1.73 ^c % | – |
| O=S(=O)(O)CCCN1c2ccccc2Sc2cc3ccccc3nc21 [Compound 5, 3-(quino[3,2-b]benzo[1,4]thiazin-6-yl)propane-1-sulfonic acid] | 5.49% | 0.79 µM | 1.57 µM | 208.69 ± 13.07% and 208.69 ± 13.07 ^a % | 142.87 ± 15.43 ^b % | 76.83 ± 0.0 ^c % | 39.72 ± 6.30 ^c % | 39.24 ± 0.0 ^c % | – |
| O=C(O)CN(CCN(CC(=O)O)CC(=O)O)CC(=O)O [EDTA] | – | – | – | – | – | – | – | – | increasing inhibitory action with increased concentration |
